Results published in US20130005733A1, “COMBINATION ANTI-CANCER THERAPY” (OSI Pharmaceuticals, LLC, priority 2010, published 2013).

Legend:
[1] = tested on: Igrov1; assay: Cell Titer Glo proliferation assay, ovarian cell line panel; assay type: cell-based, Human; details: Igrov1, single agent, cell viability at 72 hours
Experimental: Cell lines: Human cancer cell lines were purchased from the American Type Culture Collection (ATCC). The cell lines Ovcar-3, MDAH2774, Caov3, lgrov-1, and MDA-MB-231 were grown in media as prescribed by the ATCC, containing 10% FCS. HNSCC 1483, HNSCC 1386, HNSCC 1186 were a gift from Memorial Sloan Kettering and were cultured in 1:1 DMEM: Hams F12 with 10% FCS. Ovcar-4, Ovcar-5, and Ovcar-8 were obtained from the NCI and were grown in RPMI with 10% FCS. Measurement of proliferation: Inhibition of proliferation was measured using the Cell Titer Glo Assay (Promega Corporation, Madison, WI). Cell lines were seeded at a density of 3000 cells per well in a 96-well plate. 24 hours after plating cells were dosed with varying concentrations of drug, either as a single agent or in combination. […] Inhibition of proliferation, relative to vehicle-treated controls was expressed as a fraction of 1 and graphed using PRISM® software (Graphpad Software, San Diego, Calif.).

[2] = tested on: Ovcar3; assay: as above; assay type: cell-based, Human; details: Ovcar3, single agent, cell viability at 72 hours
Experimental: (§1) Cell lines: Human cancer cell lines were purchased from the American Type Culture Collection (ATCC). The cell lines Ovcar-3, MDAH2774, Caov3, lgrov-1, and MDA-MB-231 were grown in media as prescribed by the ATCC, containing 10% FCS. HNSCC 1483, HNSCC 1386, HNSCC 1186 were a gift from Memorial Sloan Kettering and were cultured in 1:1 DMEM: Hams F12 with 10% FCS. Ovcar-4, Ovcar-5, and Ovcar-8 were obtained from the NCI and were grown in RPMI with 10% FCS. Measurement of proliferation: Inhibition of proliferation was measured using the Cell Titer Glo Assay (Promega Corporation, Madison, WI). Cell lines were seeded at a density of 3000 cells per well in a 96-well plate. 24 hours after plating cells were dosed with varying concentrations of drug, either as a single agent or in combination. […] Inhibition of proliferation, relative to vehicle-treated controls was expressed as a fraction of 1 and graphed using PRISM® software (Graphpad Software, San Diego, Calif.). Analysis of Synergy: The Bliss additivism model was used to classify the effect of combining OSI-027 and OSI-906 as additive, synergistic or antagonistic. A theoretical curve was calculated for combined inhibition using the equation: Ebliss=EA+EB−EA*EB, where EA and EB are the fractional inhibitions obtained by drug A alone and drug B alone at specific concentrations. Here, Ebliss is the fractional inhibition that would be expected if the combination of the two drugs was exactly additive. If the experimentally measured fractional inhibition was less than Ebliss the combination was said to be synergistic. If the experimentally measured fractional inhibition was greater than Ebliss the combination was said to be antagonistic. For dose response curves, the bliss additivity was calculated for varying doses of drug A when combined with a constant dose of drug B. This allowed an assessment as to whether drug B affected the potency of drug A or shifted its intrinsic activity. All plots were generated using Graphpad Prism software.

[3] = tested on: MDAH2774; assay: as above; assay type: cell-based, Human; details: MDAH2774 (KRAS mutant), single agent, cell viability at 72 hours
Experimental: as §1

[4] = tested on: Ovcar-5; assay: as above; assay type: cell-based, Human; details: Ovcar-5 (KRAS mutant), single agent, cell viability at 72 hours
Experimental: as §1

[5] = tested on: H460 NSCLC xenograft; assay: Tumor growth inhibition in vivo, xenograft; details: single agent
Experimental: Evaluation of tumor growth inhibition in vivo: Evaluation of tumor growth inhibition in vivo was conducted at OSI facilities with the approval of the Institutional Animal Care and Use Committee (IACUC) in an American Association for Accreditation of Laboratory Animal Care (AAALAC) accredited vivarium and in accordance with the Institute of Laboratory Animal Research (Guide for the Care and Use of Laboratory Animals, NIH, Bethesda, Md., USA). For this study, female athymic nude nu/nu CD-1 mice (6-8 wks, 20-28 g, Charles River Laboratories, Wilmington, Mass., USA) were allowed to acclimate for a minimum of one week prior to initiation of the study. To evaluate tumor growth inhibition, cells were harvested from cell culture flasks during exponential cell growth, washed twice with sterile PBS, counted and resuspended in PBS to a suitable concentration before subcutaneous implantation on the right flank of nu/nu CD-1 mice. Tumors were established to 200±50 mm^3 in size before randomization into treatment groups of 8 mice each. […]
where Tt=median tumor volume of treated at time t; T0=median tumor volume of treated at time 0; Ct=median tumor volume of control at time t; and C0=median tumor volume of control at time 0. The average TGI over the dosing period was then calculated and reported. […]

[6] = tested on: pPRAS40 (T246) in MDAH2774; assay: Western blot of phospho-PRAS40; assay type: cell-based, Human; details: 300 nM each agent, 2 hours
Experimental: (§2) Cell extracts were prepared by detergent lysis (50 mM Tris-HCl, pH 8.0, 150 mM NaCl, 1% NP-40, 0.5% sodium deoxycholate, 0.1% SDS, containing protease inhibitor (P8340, Sigma, St. Louis, Mo.) and phosphatase inhibitor (P5726, Sigma, St. Louis, Mo.) cocktails. The soluble protein concentration was determined by micro-BSA assay (Pierce, Rockford, Ill.). Pixel density was determined using AlphaEaseFC software (Alpha Innotech, San Leandro, Calif.). Protein immunodetection was performed by electrophoretic transfer of SDS-PAGE separated proteins to nitrocellulose, incubation with antibody, and chemiluminescent second step detection (PicoWest; Pierce, Rockford, Ill.). The antibodies included: 4E-BP1, p-4E-BP1(T37/46), PRAS40, and pPRAS40 ([…]). Antibodies were obtained from Cell Signaling Technology, Inc. (Danvers, Mass.). […] The media was removed, cells were washed two times with PBS, and cells were lysed as previously described.

[7] = tested on: p-4E-BP1(T37/46); assay: Western blot of phospho-4E-BP1; assay type: cell-based, Human; details: 300 nM each agent; 2 hours
Experimental: as §2

[8] = tested on: IR phosphorylation in Ovcar-3 ovarian carcinoma cells; assay: Phospho-RTK antibody array (Proteome Profiler); assay type: cell-based, Human; details: Ovcar-3 (KRAS wt); 3 uM each agent; relative to DMSO
From the text: (§3) Measurement of phosphorylated receptor tyrosine kinases: A commercially available membrane-based antibody array (Proteome Profiler Array, R&D Systems, Minneapolis, Minn.) was used to simultaneously co-immunoprecipitate 42 different receptor tyrosine kinases (RTKs) in duplicate and measure specific phospho-epitopes on each. The phospho-epitopes were detected by chemiluminescence, quantitated based on pixel density for each pair of spots and expressed relative to vehicle-treated controls. Pixel density was determined using AlphaEaseFC software (Alpha Innotech, San Leandro, Calif.).

[9] = tested on: IGF-1R phosphorylation in MDAH2774 ovarian carcinoma cells; assay: Phospho-RTK antibody array (Proteome Profiler); assay type: cell-based, Human; details: MDAH2774 (KRAS mutant); 3 uM each agent; 2 hour treatment
From the text: as §3

[10] = tested on: IR phosphorylation in MDAH2774 ovarian carcinoma cells; assay: Phospho-RTK antibody array (Proteome Profiler); assay type: cell-based, Human; details: MDAH2774 (KRAS mutant); 3 uM each agent; 2 hour treatment
From the text: as §3

[11] = tested on: Ovcar-5 cells; assay: Caspase 3/7 Glo apoptosis assay; assay type: cell-based, Human; details: 48 hrs after treatment, OSI-027 varying doses alone or with 5 uM OSI-906
Experimental: Measurement of apoptosis: […] Cell lines were seeded at a density of 3000 cells per well in a 96-well plate. 24 hours after plating cells were dosed with varying concentrations of drug, either as a single agent or in combination. […] The caspase 3/7 activity was normalized to cell number per well, using a parallel plate treated with Cell Titer Glo (Promega Corporation, Madison, WI). Signal for each well was normalized using the following formula: Caspase 3/7 Glo luminescence units/Cell Titer Glo fraction of DMSO control. All graphs were generated using PRISM® software (Graphpad Software, San Diego, Calif.). […] A theoretical curve was calculated for combined inhibition using the equation: Ebliss=EA+EB−EA*EB, where EA and EB are the fractional inhibitions obtained by drug A alone and drug B alone at specific concentrations. […] If the experimentally measured fractional inhibition was less than Ebliss the combination was said to be synergistic. If the experimentally measured fractional inhibition was greater than Ebliss the combination was said to be antagonistic. For dose response curves, the bliss additivity was calculated for varying doses of drug A when combined with a constant dose of drug B. This allowed an assessment as to whether drug B affected the potency of drug A or shifted its intrinsic activity. […]

[12] = tested on: IGF-1R phosphorylation in H460 lung carcinoma cells; assay: Phospho-RTK antibody array (Proteome Profiler); assay type: cell-based, Human; details: 3 uM, relative to DMSO
From the text: as §3

Compound: C[C@]1(O)C[C@@H](c2nc(-c3ccc4ccc(-c5ccccc5)nc4c3)c3c(N)nccn32)C1 [OSI-906, cis-3-[8-amino-1-(2-phenylquinolin-7-yl)-imidazo[1,5-a]pyrazin-3-yl]-1-methylcyclobutanol]
- sensitivity of cell line (inhibition of proliferation) [1]: among the least sensitive
- sensitivity of cell line (inhibition of proliferation) [2]: among the least sensitive
- sensitivity of cell line (inhibition of proliferation) [3]: most sensitive
- sensitivity of cell line (inhibition of proliferation) [4]: most sensitive
- tumor growth inhibition (TGI) ([5]; OSI-906 60 mg/kg once-daily for 14 days): 69%
- inhibition of phosphor-PRAS40 [6]: inhibits phosphor-PRAS40 to a greater degree
- phosphorylation of 4E-BP1 [7]: No significant decrease
- phosphorylation of IR [8]: fully attenuates phosphor-IR, below the basal level
- phosphorylation of IGF-1R [9]: reduced
- phosphorylation of IR [10]: reduced

Compound: COc1cccc2cc(-c3nc([C@H]4CC[C@H](C(=O)O)CC4)n4ncnc(N)c34)[nH]c12 [OSI-027, trans-4-[4-amino-5-(7-methoxy-1H-indol-2-yl)imidazo[5,1-f][1,2,4]triazin-7-yl]cyclohexanecarboxylic acid]
- sensitivity of cell line (inhibition of proliferation) [1]: most sensitive
- induction of apoptosis (caspase 3/7 activity) [11]: did not significantly induce apoptosis
- sensitivity of cell line (inhibition of proliferation) [2]: most sensitive
- sensitivity of cell line (inhibition of proliferation) [3]: relatively insensitive
- sensitivity of cell line (inhibition of proliferation) [4]: relatively insensitive
- tumor growth inhibition (TGI) ([5]; OSI-027 50 mg/kg oral daily for 14 days): 66%
- inhibition of phosphor-PRAS40 [6]: partial inhibition
- phosphorylation of 4E-BP1 [7]: reduced
- phosphorylation of IR [8]: hyperphosphorylated
- phosphorylation of IGF-1R [12]: hyperphosphorylation of IGF-1R
- phosphorylation of IGF-1R [9]: increased
- phosphorylation of IR [10]: increased

Compound: Nc1nccn2c1c(-c1cc3cccc(Cl)c3[nH]1)nc2[C@H]1CC[C@H](C(=O)O)CC1 [OXA-01]
- phosphorylation of IGF-1R [12]: increases p-IGF-1R to a greater degree than erlotinib

Compound: C#Cc1cccc(Nc2ncnc3cc(OCCOC)c(OCCOC)cc23)c1 [erlotinib, reference compound]
- phosphorylation of IGF-1R [12]: hyperphosphorylation of IGF-1R
